Measurements reported in patent US5643926A, “Pyrazolidinone CCK and gastrin antagonists and pharmaceutical formulations thereof” (priority 1994, dated 1997).

Experiments:
[1] = biological target: T1, CCK receptor, mouse brain membranes (Mus musculus, UniProt P56481); assay: Brain CCK receptor binding (displacement of 125I-CCK-8 sulfate, mouse brain membranes)
T1 construct: from tissue; host or cells: forebrain membranes of male CF-1 mice
T1 sequence (P56481 1-453): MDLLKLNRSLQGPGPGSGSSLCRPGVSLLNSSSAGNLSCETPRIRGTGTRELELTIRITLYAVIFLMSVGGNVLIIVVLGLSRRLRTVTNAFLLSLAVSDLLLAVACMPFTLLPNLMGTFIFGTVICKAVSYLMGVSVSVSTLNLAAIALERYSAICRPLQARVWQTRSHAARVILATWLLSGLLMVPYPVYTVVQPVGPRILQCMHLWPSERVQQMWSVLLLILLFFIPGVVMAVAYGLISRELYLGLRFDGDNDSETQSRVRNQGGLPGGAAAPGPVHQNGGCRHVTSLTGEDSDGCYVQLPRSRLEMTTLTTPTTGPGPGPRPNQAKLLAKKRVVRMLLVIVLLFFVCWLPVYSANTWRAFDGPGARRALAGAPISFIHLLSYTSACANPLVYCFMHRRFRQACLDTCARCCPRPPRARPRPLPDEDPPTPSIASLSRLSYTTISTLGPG
Protocol: (§1) Test Procedures for CCK and Gastrin Receptor Binding (IC50)
Brain CCK receptor binding was performed using mouse brain membranes according to the method of Chang and Lotti (Proc. Natl. Acad. Sci. 83: 4923-4926, 1986). Male CF-1 mice, 23-25 g were sacrificed by cervical dislocation, the forebrain removed and placed in ice cold 50 mM Tris buffer, pH 7.4. The tissue was homogenized in 100 volumes of the Tris buffer with a Brinkman Polytron or Tekmar Tissumizer and then centrifuged at 40,000 g for 10 min. Pellets were resuspended in Tris buffer, centrifuged as above and then resuspended in 100 volumes of assay buffer, pH 6.5 (20 mM N-2-hydroxyethyl-piperazine-N'-2-ethane sulfonic acid (HEPES), 1 mM ethylene glycol bis(2-aminoethyl ether-N,N,N',N'-tetraaceticacid) (EGTA), 5 mM MgCl2, 130 mM NaCl, and 0.25 mg/ml bacitracin). The binding assay consisted of 50 μL of compound (or buffer for total binding), 50 μL of ^125 I-CCK-8 sulfate (20 pM) (Amersham IM-159), 200 μL of assay buffer and 200 μL of homogenate (80-120 μg protein). The samples were incubated at room temperature (25°) for 2 hours, and they were then filtered through GF/B glass fiber filters (soaked in wash buffer for 2 hours before use) using a 48 well Brandel cell harvester designed for receptor binding. The filters were washed twice with 3 ml of 50 mM Tris buffer, pH 7.4, containing 0.01% BSA and then counted for radioactivity in plastic tubes with a Micromedic 10/600 automatic gamma counter.
Compounds were dissolved in dimethyl sulfoxide (DMSO) at a concentration of 10 mM and then further diluted with assay buffer. The concentration of DMSO in the incubation was 0.1% or less and had no effect on the assay at that level. IC-50 values of displacement curves were determined using 7 concentrations of compound and were calculated using the ALLFIT computer program of DeLean, Munson and Rodbard (Am. J. Physiol. 235: E97-E102, 1978). Non-specific binding was determined as the displacement of the radioligand by 100 nM CCK-8 sulfate.
Table III below summarizes representative CCK and gastrin-binding tests results for exemplified compounds in accordance with this invention.

Titration pKa = type: physicochemical; details: 2:1 DMF:H2O as solvent
Excerpt: Tetrahydrofuran (THF) was dried by distillation from sodium/benzophenone.

[2] = biological target: T2, peripheral type CCK receptors in rat pancreas (Rattus norvegicus, UniProt P30551); assay: Binding to peripheral type CCK receptors in rat pancreas (displacement of 3H-L-364,718); details: read-out: Pancreas CCK receptor binding, Percent Inhibition at 10 μM
T2 construct: Pancreas was obtained from male Sprague-Dawley rats; from tissue; host or cells: pancreas membranes of male Sprague-Dawley rats
T2 sequence (P30551 1-444): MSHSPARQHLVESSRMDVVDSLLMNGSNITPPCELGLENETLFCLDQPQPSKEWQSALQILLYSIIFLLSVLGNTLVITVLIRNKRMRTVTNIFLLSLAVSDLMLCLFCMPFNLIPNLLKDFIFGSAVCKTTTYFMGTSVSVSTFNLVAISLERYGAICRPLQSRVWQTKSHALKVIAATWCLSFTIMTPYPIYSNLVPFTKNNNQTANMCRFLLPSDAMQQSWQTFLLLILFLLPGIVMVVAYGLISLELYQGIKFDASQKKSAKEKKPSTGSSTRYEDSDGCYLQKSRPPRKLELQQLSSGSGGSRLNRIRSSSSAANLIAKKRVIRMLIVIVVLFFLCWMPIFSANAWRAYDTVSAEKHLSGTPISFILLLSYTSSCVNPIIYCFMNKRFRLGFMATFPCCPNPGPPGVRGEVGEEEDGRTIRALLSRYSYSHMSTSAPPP
Protocol: as §1
Binding to peripheral type CCK receptors in rat pancreas was done according to the method of Chang et al. (Mol. Pharmacol. 30: 212-217, 1986) using ^3 H-L364, 718. Pancreas was obtained from male Sprague-Dawley rats, 150-200 g, after decapitation, and dissected free from adipose and connective tissue. The tissue was homogenized in 30 volumes of 50 mM Tris buffer, pH 7.4 and centrifuged at 40,000 g for 10 min. The tissue pellet was washed by resuspension and centrifugation as described above. The final pellet was suspended in 500 volumes of assay buffer (50 mM Tris buffer, pH 7.4, 5 mM MgCl2, 0.14 mg/ml bacitracin, and 5 mM dithiothreitol) to give a protein concentration of 30-60 μg/200 μl . Reagent volumes for the assay were the same as those used for CCK binding to brain membranes. Tritium labeled L-364,718 (Dupont NEN, NET-971) was used as the ligand at a concentration of 0.4-0.6 nM. The samples were incubated 1 hour at room temperature and then filtered as described for the CCK-brain receptor. Scintillation cocktail was added to the filters which were counted for radioactivity using a Micromedic Taurus automatic liquid scintillation counter.
Compound samples were prepared and IC-50 values were determined as described for the CCK-brain experiments. […]

[3] = biological target: T3, gastrin receptor, guinea pig stomach mucosal membranes (Cavia porcellus, UniProt H0VZC5); assay: Gastrin binding to guinea pig stomach mucosal membranes (displacement of 125I-gastrin I); details: guinea pig gastric mucosa
T3 construct: Guinea pig stomach fundus was obtained from male Hartley guinea pigs; from tissue; host or cells: stomach fundus mucosal membranes of male Hartley guinea pigs
T3 sequence (H0VZC5 1-426): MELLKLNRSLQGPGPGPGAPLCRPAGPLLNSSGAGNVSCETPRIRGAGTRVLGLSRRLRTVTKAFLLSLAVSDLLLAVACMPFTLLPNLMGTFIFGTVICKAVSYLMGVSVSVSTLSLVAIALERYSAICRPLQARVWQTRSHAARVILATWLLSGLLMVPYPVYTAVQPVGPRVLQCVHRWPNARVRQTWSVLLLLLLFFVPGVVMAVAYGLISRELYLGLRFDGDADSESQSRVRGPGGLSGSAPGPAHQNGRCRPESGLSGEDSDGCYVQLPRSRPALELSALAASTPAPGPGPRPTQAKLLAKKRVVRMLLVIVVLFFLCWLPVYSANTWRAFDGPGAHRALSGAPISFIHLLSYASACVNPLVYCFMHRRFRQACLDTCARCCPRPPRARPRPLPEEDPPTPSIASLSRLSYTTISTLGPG
Protocol: as §1
The method used for gastrin binding to guinea pig stomach mucosal membranes was similar to that described by Takeuchi, Speir and Johnson (Am. J. Physiol. 237(3): E284-E294, 1979). Guinea pig stomach fundus was obtained from male Hartley guinea pigs, 300-350 g, and the mucosa was scraped off with a glass slide. The mucosa was homogenized in 50 mM Tris buffer, pH 7.4, containing 1 mM phenylmethanesulfonyl fluoride using a Dounce glass homogenizer, and the suspension was centrifuged at 40,000 g for 10 min. The resulting pellet was resuspended and centrifuged once more, the final pellet was then suspended in 100 ml assay buffer per 1 guinea pig stomach to give a protein concentration of 200-300 μg/200 μl. The assay buffer consisted of 50 mM Tris buffer, pH 7.4, 5 mM MgCl2, 0.14 mg/ml bacitracin, and 1 μg/ml each of leupeptin, chymostatin, aprotinin and pepstatin. Reagent volumes for the assay were the same as those used for CCK binding to brain membranes. […] The samples were incubated 3 hours at room temperature and filtered and counted as described for CCK binding to brain membranes. Compound samples were prepared and IC-50 values were determined as described for the CCK-brain receptor binding. Non-specific binding was determined using 100 nM gastrin I (human synthetic from Sigma Chemical Co.). […]

In the case of “1-[(4-Bromophenyl)aminocarbonyl]-2-(O-t-butyl-carboxymethyl)-4,5-diphenyl-3-pyrazolidinone and 1-[(4-bromophenyl)aminocarbonyl]-3-(O-t-butylcarboxymethoxy)-4,5-diphenyl- 2-pyrazoline [Example 11]”, the “Brain CCK receptor binding, Percent Inhibition at 10 μM” value ([1]; at 10 μM) is reported as 67%.
For “1-[(4-Bromophenyl)aminocarbonyl]-2-carboxymethyl-4,5-diphenyl-3-pyrazolidinone and 1-[(4-bromophenyl)aminocarbonyl]-3-carboxymethoxy-4,5-diphenyl-2-pyrazoline [Example 12]”, the “titration pKa” value (Titration pKa) was 4.8.
For `O=C(O)CN1C(=O)[C@H](c2ccccc2)[C@@H](c2ccccc2)N1C(=O)Nc1ccc(Br)cc1` (relative stereo) [Example 12 (N-), 1-[(4-Bromophenyl)aminocarbonyl]-2-carboxymethyl-4,5-diphenyl-3-pyrazolidinone], the IC50 [1] was 1000 nM.
Work on `O=C1NN(C(=O)Cc2ccc(C(F)(F)F)cc2)[C@@H](c2ccccc2)[C@@H]1c1ccccc1` (relative stereo) [Example 77] yielded an inhibition at 10 µM [2] of 4%.
With `O=C1NN(c2nc3c(Cl)c(Cl)ccc3s2)[C@@H](c2ccccc2)[C@@H]1c1ccccc1` (relative stereo) [Example 86] the IC50 [1] was 1100 nM.
Work on `O=C1NN(C(=O)Nc2ccc3ccccc3c2)[C@@H](c2ccccc2)[C@@H]1c1ccccc1` (relative stereo) [Example 91] yielded an IC50 [3] of 62 nM and an IC50 [1] of 10 nM.
Compound `O=C1NN(C(=O)Nc2ccc(C(F)(F)F)cc2)C(c2ccccc2Cl)C1c1ccccc1` (centres unmarked) [Example 110] has an inhibition at 10 µM [2] of 47%.
